Source: paper PMC3192407, “Both Basic and Acidic Amino Acid Residues of IpTxa Are Involved in Triggering Substate of RyR1” (Journal of Biomedicine and Biotechnology, 2011)
Bridge positions count the residues as written; N and C are the ends. Peptide text beside a SMILES is read from it.

Assays:
[1] = molecular target: T1, rabbit skeletal RyR1 (native RyR1 in HSR) (Oryctolagus cuniculus, UniProt P11716); assay: Planar lipid bilayer single-channel recording, native RyR1 in HSR; assay type: biochemical; settings: for EC50: native RyR1 in SR, toxin cis, 6-100 nM, -30 mV, [Ca^2+]free 10 μM, pH 7.2, Hill fit, means ± SE of 3–9 experiments, read-out: EC50 for Psubstate
T1 construct: tested using native RyR1 in rabbit skeletal HSR; from tissue; host or cells: rabbit fast-twitch back and leg muscles (heavy SR vesicles)
T1 sequence (P11716 whole entry): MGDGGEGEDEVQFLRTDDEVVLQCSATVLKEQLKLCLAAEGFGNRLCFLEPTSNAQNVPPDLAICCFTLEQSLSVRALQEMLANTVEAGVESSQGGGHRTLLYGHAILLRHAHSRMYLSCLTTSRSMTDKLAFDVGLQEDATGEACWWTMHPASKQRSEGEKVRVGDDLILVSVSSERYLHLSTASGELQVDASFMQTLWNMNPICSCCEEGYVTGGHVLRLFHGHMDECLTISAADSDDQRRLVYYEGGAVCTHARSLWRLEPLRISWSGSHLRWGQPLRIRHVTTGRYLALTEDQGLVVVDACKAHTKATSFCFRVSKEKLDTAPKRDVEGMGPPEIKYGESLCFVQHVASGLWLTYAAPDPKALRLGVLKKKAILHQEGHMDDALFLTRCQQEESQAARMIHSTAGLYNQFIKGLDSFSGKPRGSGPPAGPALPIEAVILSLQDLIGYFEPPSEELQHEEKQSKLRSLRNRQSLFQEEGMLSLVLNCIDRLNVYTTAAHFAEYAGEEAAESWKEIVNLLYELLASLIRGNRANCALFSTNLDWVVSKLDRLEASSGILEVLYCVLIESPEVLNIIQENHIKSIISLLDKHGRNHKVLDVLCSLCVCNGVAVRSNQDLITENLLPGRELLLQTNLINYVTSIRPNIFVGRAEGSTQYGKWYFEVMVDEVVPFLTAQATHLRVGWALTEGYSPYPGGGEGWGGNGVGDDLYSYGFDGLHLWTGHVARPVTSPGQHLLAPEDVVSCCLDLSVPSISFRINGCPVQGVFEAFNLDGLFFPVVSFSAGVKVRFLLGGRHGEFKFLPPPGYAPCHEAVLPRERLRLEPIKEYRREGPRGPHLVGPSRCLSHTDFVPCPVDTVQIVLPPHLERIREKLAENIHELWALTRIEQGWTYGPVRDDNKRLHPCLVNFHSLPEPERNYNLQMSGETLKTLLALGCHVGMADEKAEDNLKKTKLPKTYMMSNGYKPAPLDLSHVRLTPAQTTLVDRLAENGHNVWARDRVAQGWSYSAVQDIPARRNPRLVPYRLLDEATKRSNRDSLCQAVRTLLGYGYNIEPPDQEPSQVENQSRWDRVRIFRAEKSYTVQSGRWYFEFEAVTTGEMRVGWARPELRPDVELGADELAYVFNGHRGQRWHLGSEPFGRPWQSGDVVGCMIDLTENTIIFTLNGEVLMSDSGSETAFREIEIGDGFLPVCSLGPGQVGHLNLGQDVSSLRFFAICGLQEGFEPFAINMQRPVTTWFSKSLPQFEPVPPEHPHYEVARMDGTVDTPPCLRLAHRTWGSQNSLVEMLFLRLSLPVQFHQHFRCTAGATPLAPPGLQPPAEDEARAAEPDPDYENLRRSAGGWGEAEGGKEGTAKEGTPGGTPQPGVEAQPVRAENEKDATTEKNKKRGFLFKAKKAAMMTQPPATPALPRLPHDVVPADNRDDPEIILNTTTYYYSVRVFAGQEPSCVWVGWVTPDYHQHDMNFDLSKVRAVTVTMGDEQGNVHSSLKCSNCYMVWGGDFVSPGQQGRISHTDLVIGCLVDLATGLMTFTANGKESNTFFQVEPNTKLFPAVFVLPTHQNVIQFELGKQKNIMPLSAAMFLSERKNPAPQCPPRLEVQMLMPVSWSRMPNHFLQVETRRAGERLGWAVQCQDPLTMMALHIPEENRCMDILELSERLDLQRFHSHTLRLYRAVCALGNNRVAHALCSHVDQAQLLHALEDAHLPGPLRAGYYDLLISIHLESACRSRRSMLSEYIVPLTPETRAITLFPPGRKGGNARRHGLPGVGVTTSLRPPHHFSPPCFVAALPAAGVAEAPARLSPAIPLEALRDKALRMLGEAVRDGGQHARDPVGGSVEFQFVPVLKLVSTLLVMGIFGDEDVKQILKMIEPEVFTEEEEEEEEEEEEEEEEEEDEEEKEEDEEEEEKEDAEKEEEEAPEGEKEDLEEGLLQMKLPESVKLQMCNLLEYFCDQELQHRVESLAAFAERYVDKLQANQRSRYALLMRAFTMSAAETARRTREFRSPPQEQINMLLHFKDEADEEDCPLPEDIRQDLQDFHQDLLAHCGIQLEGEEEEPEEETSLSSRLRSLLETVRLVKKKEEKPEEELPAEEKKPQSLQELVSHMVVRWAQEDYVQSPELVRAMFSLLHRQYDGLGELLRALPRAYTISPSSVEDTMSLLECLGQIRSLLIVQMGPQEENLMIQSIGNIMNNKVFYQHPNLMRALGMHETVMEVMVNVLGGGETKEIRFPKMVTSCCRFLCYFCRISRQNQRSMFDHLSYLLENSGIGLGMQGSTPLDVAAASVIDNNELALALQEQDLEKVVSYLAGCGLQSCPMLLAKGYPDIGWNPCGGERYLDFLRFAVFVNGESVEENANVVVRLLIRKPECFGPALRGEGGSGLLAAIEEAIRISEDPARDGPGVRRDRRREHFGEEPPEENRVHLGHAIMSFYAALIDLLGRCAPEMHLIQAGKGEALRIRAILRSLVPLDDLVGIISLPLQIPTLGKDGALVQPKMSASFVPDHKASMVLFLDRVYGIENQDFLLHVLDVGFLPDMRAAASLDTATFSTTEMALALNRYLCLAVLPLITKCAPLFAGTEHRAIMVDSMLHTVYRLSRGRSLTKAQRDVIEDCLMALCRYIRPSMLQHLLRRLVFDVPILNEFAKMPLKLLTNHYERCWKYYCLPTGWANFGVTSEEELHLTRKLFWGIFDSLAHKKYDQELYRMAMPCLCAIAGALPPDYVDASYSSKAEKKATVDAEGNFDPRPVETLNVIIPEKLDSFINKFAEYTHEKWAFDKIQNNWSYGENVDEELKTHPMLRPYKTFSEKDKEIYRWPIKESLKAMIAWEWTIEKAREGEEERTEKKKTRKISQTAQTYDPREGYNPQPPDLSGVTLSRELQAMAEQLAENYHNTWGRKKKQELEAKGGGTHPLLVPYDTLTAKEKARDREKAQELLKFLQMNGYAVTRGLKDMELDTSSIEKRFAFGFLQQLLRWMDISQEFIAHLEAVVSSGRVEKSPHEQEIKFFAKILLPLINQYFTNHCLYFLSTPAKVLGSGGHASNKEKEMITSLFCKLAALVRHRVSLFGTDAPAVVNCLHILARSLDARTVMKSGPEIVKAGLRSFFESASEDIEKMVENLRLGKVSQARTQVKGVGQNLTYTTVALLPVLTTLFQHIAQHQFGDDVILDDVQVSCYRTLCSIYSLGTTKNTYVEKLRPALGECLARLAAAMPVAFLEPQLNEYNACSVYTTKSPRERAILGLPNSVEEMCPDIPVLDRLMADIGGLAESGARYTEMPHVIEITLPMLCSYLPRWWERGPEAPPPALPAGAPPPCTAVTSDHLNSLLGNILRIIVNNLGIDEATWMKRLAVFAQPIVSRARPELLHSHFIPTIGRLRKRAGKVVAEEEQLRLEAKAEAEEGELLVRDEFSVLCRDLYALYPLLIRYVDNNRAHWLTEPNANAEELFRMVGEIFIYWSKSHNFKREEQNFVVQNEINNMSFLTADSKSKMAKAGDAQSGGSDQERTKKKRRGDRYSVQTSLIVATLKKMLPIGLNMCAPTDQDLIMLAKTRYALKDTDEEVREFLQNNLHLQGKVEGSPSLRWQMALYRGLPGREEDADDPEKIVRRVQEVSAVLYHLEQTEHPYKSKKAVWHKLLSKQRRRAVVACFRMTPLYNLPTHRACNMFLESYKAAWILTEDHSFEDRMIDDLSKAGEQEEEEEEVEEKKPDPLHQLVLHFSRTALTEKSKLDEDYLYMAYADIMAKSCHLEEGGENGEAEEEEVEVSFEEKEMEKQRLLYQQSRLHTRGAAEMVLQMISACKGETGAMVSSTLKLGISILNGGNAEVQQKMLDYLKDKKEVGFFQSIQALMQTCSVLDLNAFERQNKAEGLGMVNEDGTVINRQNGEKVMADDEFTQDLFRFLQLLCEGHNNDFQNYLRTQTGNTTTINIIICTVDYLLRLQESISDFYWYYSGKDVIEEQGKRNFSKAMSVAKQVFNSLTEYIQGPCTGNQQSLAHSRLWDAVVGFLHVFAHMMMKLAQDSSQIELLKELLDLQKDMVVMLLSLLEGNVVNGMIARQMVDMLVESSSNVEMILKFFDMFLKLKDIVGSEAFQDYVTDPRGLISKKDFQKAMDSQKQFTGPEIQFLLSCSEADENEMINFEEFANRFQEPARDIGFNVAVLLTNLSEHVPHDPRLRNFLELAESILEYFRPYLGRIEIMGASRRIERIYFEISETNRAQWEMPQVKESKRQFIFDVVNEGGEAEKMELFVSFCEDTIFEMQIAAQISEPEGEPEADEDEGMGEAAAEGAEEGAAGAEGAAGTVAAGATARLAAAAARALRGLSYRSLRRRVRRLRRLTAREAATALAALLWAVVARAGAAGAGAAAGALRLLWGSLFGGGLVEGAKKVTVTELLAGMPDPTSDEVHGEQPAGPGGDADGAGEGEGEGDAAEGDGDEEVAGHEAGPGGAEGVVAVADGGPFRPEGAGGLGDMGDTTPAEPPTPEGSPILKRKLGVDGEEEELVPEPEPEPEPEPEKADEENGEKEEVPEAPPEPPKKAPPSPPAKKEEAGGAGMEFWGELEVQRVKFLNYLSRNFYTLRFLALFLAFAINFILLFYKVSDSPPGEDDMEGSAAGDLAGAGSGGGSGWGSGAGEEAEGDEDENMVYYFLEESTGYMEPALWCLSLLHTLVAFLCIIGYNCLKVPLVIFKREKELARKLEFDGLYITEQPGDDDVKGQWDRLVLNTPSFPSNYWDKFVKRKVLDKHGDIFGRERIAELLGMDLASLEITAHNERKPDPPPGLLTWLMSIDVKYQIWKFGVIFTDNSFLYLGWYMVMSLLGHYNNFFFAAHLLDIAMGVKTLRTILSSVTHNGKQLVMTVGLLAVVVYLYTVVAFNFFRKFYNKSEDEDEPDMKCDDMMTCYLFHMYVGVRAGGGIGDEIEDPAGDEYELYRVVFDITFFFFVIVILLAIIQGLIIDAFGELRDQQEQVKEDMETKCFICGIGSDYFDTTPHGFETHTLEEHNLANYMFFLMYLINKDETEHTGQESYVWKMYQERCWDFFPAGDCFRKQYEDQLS
Experimental: A heavy fraction of fragmented SR vesicles (HSR) containing junctional SR was prepared from rabbit fast-twitch back and leg muscles as described previously.
(§1) Single-channel recordings of rabbit skeletal RyR1 incorporated into planar lipid bilayers were carried out as described previously. Lipid bilayers, consisting of brain tissue phosphatidylethanolamine and phosphatidylserine (1 : 1) in decane (20 mg/mL) were formed across a hole of approximately 200 μm diameter. Thinning of the bilayer was monitored by bilayer capacitance. The basic composition of the cis/trans solution consisted of 300 mM cesium methanesulfonate, 10 mM Tris/Hepes (pH 7.2), 2 mM EGTA, and 1.998 mM CaCl2 ([Ca^2+]free = 10 μM). [Ca^2+]free was calculated using the “Chelator” program (Theo Schoenmaker). Cs^+ was selected as the charge carrier to ensure precise control of free [Ca^2+], to increase the channel conductance, and to avoid any contribution from potassium channels present in the SR membrane. Chloride channels were inhibited by using the impermeant anion methanesulfonate. Incorporation of ion channels was carried out as described by Miller and Racker and confirmed by recording the characteristically high single-channel conductance of RyRs. The trans side was maintained at ground and the cis side was clamped at −30 mV relative to the ground. After addition of the IpTxa to the cis chamber, the single channel data were collected at −30 mV for 2–5 min. […] Recordings were filtered with an 8-pole low-pass Bessel filter at 1 kHz and digitalized through a Digidata 1200 series interface (Axon Instruments). Data acquisition and analysis were done with the Axon Instruments software, pClamp v7.0.
(§2) Data were analyzed using the Hill equation described previously:
(§3) (1) Psubstate=(Psubstate, max )/[1+(EC50/[IpTxa])^nH] orPo=(Po, max )/[1+(EC50/[IpTxa])^nH], where (Po, max ) is the Po observed at saturating concentrations of IpTxa, EC50 is the IpTxa concentration for which 50% of Po, max is obtained and nH is the Hill coefficient. Also, Psubstate, max is the Psubstate observed at saturating concentrations of IpTxa, EC50 is the IpTxa concentration for which 50% of Psubstate, max is obtained, and nH is the Hill coefficient. The probability of full open state of the channel (Po) was defined as the ratio of the time spent in the open state to the total time exclusive of time spent in the substate. The probability to obtain substate (Psubstate) was calculated as the time spent in the substate divided by a given total recording time. The durations of the substate were obtained by manual positioning of the cursors and constructing all point histograms. Mean duration of substate was measured by total substate time divided by total substate frequencies.
(§4) Results are given as means ± SE. Significant differences were analyzed using Student's t-test. Differences were considered to be significant when P < 0.05. The fitting of the data to the graphs were carried out using the software, Origin v7.
To examine how IpTxa modifies RyR1 activity, RyR1 in HSR incorporated in planar lipid bilayers was tested in the presence or absence of synthetic wild-type IpTxa. The chamber solutions for both cis (cytosolic) and trans (luminal) sides included 300 mM cesium methanesulfonate and 10 mM Tris-Hepes (pH 7.2). 10 μM free Ca^2+ was added to the cis side to activate the incorporated RyR1. After an addition of IpTxa to the cis chamber, the single channel gating properties were recorded at a holding potential of −30 mV for over 2 min at each toxin concentration. […] To examine the effects of IpTxa on full open state, we calculated the probability to obtain the full open state (Po) as the time spent in the open state divided by the total time exclusive of the time spent in the substate. The time for recorded Po was in the range of 30 s–2 min. […] The steady-state Po was 0.18 ± 0.02 at 10 μM Ca^2+. […]

[2] = molecular target: T2, purified rabbit RyR1 (Oryctolagus cuniculus, UniProt P11716); assay: Planar lipid bilayer single-channel recording, purified RyR1; assay type: biochemical; settings: purified RyR1, toxin cis, 6-100 nM, -30 mV, 10 μM Ca^2+, Hill fit, means ± SE of 4–10 experiments; read-out: EC50 for Psubstate
T2 construct: we added IpTxa to purified RyR1 incorporated into planar lipid bilayers; from tissue; host or cells: rabbit skeletal muscle (inferred; purified from HSR)
T2 sequence (P11716 whole entry): as above
Experimental: as §1, §2, §3, §4
To determine whether the activation of native RyR1 in SR by IpTxa was due to a direct activation of RyR1 or due to an indirect activation through other proteins associated to RyR1, we added IpTxa to purified RyR1 incorporated into planar lipid bilayers (Figure 3(a)). […] Purity of RyR1 at the final purification step was verified by Coomassie blue staining (Supplementary Figure 2).
Figure 3 Effects of IpTxa on purified rabbit RyR1 incorporated in planar lipid bilayers. (a) Single channel activity of purified RyR1 incorporated in planar lipid bilayers at 10 μM Ca^2+ with or without IpTxa (6–100 nM) was recorded. Single channel currents are shown as downward deflections from the closed level (indicated by c). The holding potential was −30 mV. (b) The plot of Po of purified RyR1 versus various concentrations of IpTxa is shown. (c) The plot of Psubstate of purified RyR1 versus various concentrations of IpTxa is shown. The results are shown as the means ± SE for 7 experiments. […]

Structure (SMILES)	EC50 of Psubstate compared with wild type (in words) ([1]; native RyR1 (Figure 2(b)), Figure 5(b), purified RyR1, also cited in sentence)	EC50 [1] [nM]	EC50 [2] [nM]
CC(C)C[C@@H]1NC(=O)[C@H](Cc2c[nH]cn2)NC(=O)[C@@H]2CCCN2C(=O)[C@H](CC(C)C)NC(=O)[C@@H](NC(=O)[C@H](CC(=O)O)NC(=O)CN)CSSC[C@@H]2NC(=O)[C@@H]3CSSC[C@@H](C(=O)N[C@@H](CCCNC(=N)N)C(=O)O)NC(=O)[C@H](CCCNC(=N)N)NC(=O)[C@H](CCCCN)NC(=O)[C@H](CCC(=O)O)NC(=O)[C@H](C)NC(=O)[C@H](CC(N)=O)NC(=O)[C@H]([C@@H](C)O)NC(=O)CNC(=O)[C@H](CCCNC(=N)N)NC(=O)[C@H](CCCNC(=N)N)NC(=O)[C@H](CCCCN)NC(=O)[C@H](CSSC[C@H](NC(=O)[C@H](CCCNC(=N)N)NC(=O)[C@H](C)NC1=O)C(=O)N[C@@H](CCCCN)C(=O)N[C@@H](C)C(=O)N[C@@H](CC(=O)O)C(=O)N[C@@H](CC(N)=O)C(=O)N[C@@H](CC(=O)O)C(=O)N3)NC(=O)[C@H](CCCCN)NC(=O)[C@H](CCCCN)NC(=O)CNC2=O [K8A] (H-GDCLPHLARCKADNDCCGKKCKRRGTNAEKRCR-OH; disulfide 3-17, 10-21, 16-32)	dramatically decreased EC50 of Psubstate	5.7 ± 2.86	5.29 ± 4.84
CC(C)C[C@@H]1NC(=O)[C@H](Cc2c[nH]cn2)NC(=O)[C@@H]2CCCN2C(=O)[C@H](CC(C)C)NC(=O)[C@@H](NC(=O)[C@H](C)NC(=O)CN)CSSC[C@@H]2NC(=O)[C@@H]3CSSC[C@@H](C(=O)N[C@@H](CCCNC(=N)N)C(=O)O)NC(=O)[C@H](CCCNC(=N)N)NC(=O)[C@H](CCCCN)NC(=O)[C@H](CCC(=O)O)NC(=O)[C@H](C)NC(=O)[C@H](CC(N)=O)NC(=O)[C@H]([C@@H](C)O)NC(=O)CNC(=O)[C@H](CCCNC(=N)N)NC(=O)[C@H](CCCNC(=N)N)NC(=O)[C@H](CCCCN)NC(=O)[C@H](CSSC[C@H](NC(=O)[C@H](CCCNC(=N)N)NC(=O)[C@H](CCCCN)NC1=O)C(=O)N[C@@H](CCCCN)C(=O)N[C@@H](C)C(=O)N[C@@H](CC(=O)O)C(=O)N[C@@H](CC(N)=O)C(=O)N[C@@H](CC(=O)O)C(=O)N3)NC(=O)[C@H](CCCCN)NC(=O)[C@H](CCCCN)NC(=O)CNC2=O [D2A] (H-GACLPHLKRCKADNDCCGKKCKRRGTNAEKRCR-OH; disulfide 3-17, 10-21, 16-32)	–	28.6 ± 14	–
CC(C)C[C@@H]1NC(=O)[C@H](Cc2c[nH]cn2)NC(=O)[C@@H]2CCCN2C(=O)[C@H](CC(C)C)NC(=O)[C@@H](NC(=O)[C@H](CC(=O)O)NC(=O)CN)CSSC[C@@H]2NC(=O)[C@@H]3CSSC[C@@H](C(=O)N[C@@H](CCCNC(=N)N)C(=O)O)NC(=O)[C@H](CCCNC(=N)N)NC(=O)[C@H](CCCCN)NC(=O)[C@H](CCC(=O)O)NC(=O)[C@H](C)NC(=O)[C@H](CC(N)=O)NC(=O)[C@H]([C@@H](C)O)NC(=O)CNC(=O)[C@H](CCCNC(=N)N)NC(=O)[C@H](C)NC(=O)[C@H](CCCCN)NC(=O)[C@H](CSSC[C@H](NC(=O)[C@H](CCCNC(=N)N)NC(=O)[C@H](CCCCN)NC1=O)C(=O)N[C@@H](CCCCN)C(=O)N[C@@H](C)C(=O)N[C@@H](CC(=O)O)C(=O)N[C@@H](CC(N)=O)C(=O)N[C@@H](CC(=O)O)C(=O)N3)NC(=O)[C@H](CCCCN)NC(=O)[C@H](CCCCN)NC(=O)CNC2=O [R23A] (H-GDCLPHLKRCKADNDCCGKKCKARGTNAEKRCR-OH; disulfide 3-17, 10-21, 16-32)	–	19.5 ± 9.36	–
CC(C)C[C@@H]1NC(=O)[C@H](Cc2c[nH]cn2)NC(=O)[C@@H]2CCCN2C(=O)[C@H](CC(C)C)NC(=O)[C@@H](NC(=O)[C@H](CC(=O)O)NC(=O)CN)CSSC[C@@H]2NC(=O)[C@@H]3CSSC[C@@H](C(=O)N[C@@H](CCCNC(=N)N)C(=O)O)NC(=O)[C@H](CCCNC(=N)N)NC(=O)[C@H](CCCCN)NC(=O)[C@H](CCC(=O)O)NC(=O)[C@H](C)NC(=O)[C@H](CC(N)=O)NC(=O)[C@H]([C@@H](C)O)NC(=O)CNC(=O)[C@H](CCCNC(=N)N)NC(=O)[C@H](CCCNC(=N)N)NC(=O)[C@H](CCCCN)NC(=O)[C@H](CSSC[C@H](NC(=O)[C@H](CCCNC(=N)N)NC(=O)[C@H](CCCCN)NC1=O)C(=O)N[C@@H](CCCCN)C(=O)N[C@@H](C)C(=O)N[C@@H](C)C(=O)N[C@@H](CC(N)=O)C(=O)N[C@@H](CC(=O)O)C(=O)N3)NC(=O)[C@H](CCCCN)NC(=O)[C@H](CCCCN)NC(=O)CNC2=O [D13A] (H-GDCLPHLKRCKAANDCCGKKCKRRGTNAEKRCR-OH; disulfide 3-17, 10-21, 16-32)	–	21.7 ± 7.92	–
CC(C)C[C@@H]1NC(=O)[C@H](Cc2c[nH]cn2)NC(=O)[C@@H]2CCCN2C(=O)[C@H](CC(C)C)NC(=O)[C@@H](NC(=O)[C@H](CC(=O)O)NC(=O)CN)CSSC[C@@H]2NC(=O)[C@@H]3CSSC[C@@H](C(=O)N[C@@H](CCCNC(=N)N)C(=O)O)NC(=O)[C@H](CCCNC(=N)N)NC(=O)[C@H](CCCCN)NC(=O)[C@H](CCC(=O)O)NC(=O)[C@H](C)NC(=O)[C@H](CC(N)=O)NC(=O)[C@H]([C@@H](C)O)NC(=O)CNC(=O)[C@H](CCCNC(=N)N)NC(=O)[C@H](CCCNC(=N)N)NC(=O)[C@H](CCCCN)NC(=O)[C@H](CSSC[C@H](NC(=O)[C@H](CCCNC(=N)N)NC(=O)[C@H](CCCCN)NC1=O)C(=O)N[C@@H](C)C(=O)N[C@@H](C)C(=O)N[C@@H](CC(=O)O)C(=O)N[C@@H](CC(N)=O)C(=O)N[C@@H](CC(=O)O)C(=O)N3)NC(=O)[C@H](CCCCN)NC(=O)[C@H](CCCCN)NC(=O)CNC2=O [K11A] (H-GDCLPHLKRCAADNDCCGKKCKRRGTNAEKRCR-OH; disulfide 3-17, 10-21, 16-32)	–	21.8 ± 3.49	–
CC(C)C[C@@H]1NC(=O)[C@H](Cc2c[nH]cn2)NC(=O)[C@@H]2CCCN2C(=O)[C@H](CC(C)C)NC(=O)[C@@H](NC(=O)[C@H](CC(=O)O)NC(=O)CN)CSSC[C@@H]2NC(=O)[C@@H]3CSSC[C@@H](C(=O)N[C@@H](CCCNC(=N)N)C(=O)O)NC(=O)[C@H](CCCNC(=N)N)NC(=O)[C@H](CCCCN)NC(=O)[C@H](CCC(=O)O)NC(=O)[C@H](C)NC(=O)[C@H](CC(N)=O)NC(=O)[C@H]([C@@H](C)O)NC(=O)CNC(=O)[C@H](CCCNC(=N)N)NC(=O)[C@H](CCCNC(=N)N)NC(=O)[C@H](CCCCN)NC(=O)[C@H](CSSC[C@H](NC(=O)[C@H](CCCNC(=N)N)NC(=O)[C@H](CCCCN)NC1=O)C(=O)N[C@@H](CCCCN)C(=O)N[C@@H](C)C(=O)N[C@@H](CC(=O)O)C(=O)N[C@@H](CC(N)=O)C(=O)N[C@@H](C)C(=O)N3)NC(=O)[C@H](CCCCN)NC(=O)[C@H](CCCCN)NC(=O)CNC2=O [D15A] (H-GDCLPHLKRCKADNACCGKKCKRRGTNAEKRCR-OH; disulfide 3-17, 10-21, 16-32)	–	21.5 ± 1.92	–
